Test [1] addresses T1, recombinant human Meningioma Expressed Antigen 5 (MGEA5), also referred to as O-GlcNAcase (OGA) (Homo sapiens, UniProt O60502).
T1 construct: Full length OGA enzyme was purchased at OriGene (cat #TP322411); purchased OriGene TP322411
T1 sequence (O60502 1-916): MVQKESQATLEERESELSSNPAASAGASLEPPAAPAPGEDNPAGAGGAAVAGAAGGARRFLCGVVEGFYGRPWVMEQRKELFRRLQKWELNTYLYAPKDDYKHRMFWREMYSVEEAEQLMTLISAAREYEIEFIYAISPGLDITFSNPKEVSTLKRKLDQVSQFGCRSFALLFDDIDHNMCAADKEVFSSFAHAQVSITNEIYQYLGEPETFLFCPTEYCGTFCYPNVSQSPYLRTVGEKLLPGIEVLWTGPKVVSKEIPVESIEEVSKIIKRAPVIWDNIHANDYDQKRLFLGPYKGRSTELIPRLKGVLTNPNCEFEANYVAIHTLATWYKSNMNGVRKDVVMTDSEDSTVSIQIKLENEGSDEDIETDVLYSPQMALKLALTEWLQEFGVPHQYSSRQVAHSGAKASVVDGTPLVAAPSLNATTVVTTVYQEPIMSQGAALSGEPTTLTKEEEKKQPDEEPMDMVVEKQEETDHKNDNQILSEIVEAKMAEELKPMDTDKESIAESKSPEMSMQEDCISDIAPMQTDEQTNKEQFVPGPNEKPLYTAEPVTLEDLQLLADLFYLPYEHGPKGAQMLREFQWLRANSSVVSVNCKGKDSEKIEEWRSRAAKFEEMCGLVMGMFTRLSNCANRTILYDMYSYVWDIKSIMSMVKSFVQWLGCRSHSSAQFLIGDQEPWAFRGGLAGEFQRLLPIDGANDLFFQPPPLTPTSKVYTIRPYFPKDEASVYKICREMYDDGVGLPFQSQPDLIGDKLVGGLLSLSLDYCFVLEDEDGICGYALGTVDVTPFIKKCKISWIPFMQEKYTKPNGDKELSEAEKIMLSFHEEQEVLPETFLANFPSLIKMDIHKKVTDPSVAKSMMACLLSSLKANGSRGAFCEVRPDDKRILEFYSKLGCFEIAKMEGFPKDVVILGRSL
The test is described as follows: OGA biochemical assay (inhibition of FM-GlcNAc hydrolysis, fluorescence). Particulars: FM-GlcNAc substrate; for IC50: 6 h at room temperature, read-out: Enzymatic hOGA, pIC50 (converted); for Emax / Enzymatic Emax (%): maximal effect; for Emax: read-out: Enzymatic Emax (%). The text has this:
The assay is based on the inhibition of the hydrolysis of fluorescein mono-β-D-N-Acetyl-Glucosamine (FM-GlcNAc) (Mariappa et al. 2015, Biochem J 470:255) by the recombinant human Meningioma Expressed Antigen 5 (MGEA5), also referred to as O-GlcNAcase (OGA). The hydrolysis FM-GlcNAc (Marker Gene technologies, cat #M1485) results in the formation of β-D-N-glucosamineacetate and fluorescein. The fluorescence of the latter can be measured at excitation wavelength 485 nm and emission wavelength 538 nm. An increase in enzyme activity results in an increase in fluorescence signal. Full length OGA enzyme was purchased at OriGene (cat #TP322411). The enzyme was stored in 25 mM Tris.HCl, pH 7.3, 100 mM glycine, 10% glycerol at −20° C. Thiamet G and GlcNAcStatin were tested as reference compounds (Yuzwa et al. 2008 Nature Chemical Biology 4:483; Yuzwa et al. 2012 Nature Chemical Biology 8:393). The assay was performed in 200 mM Citrate/phosphate buffer supplemented with 0.005% Tween-20. 35.6 g Na2HPO4 2 H2O (Sigma, #C0759) were dissolved in 1 L water to obtain a 200 mM solution. 19.2 g citric acid (Merck, #1.06580) was dissolved in 1 L water to obtain a 100 mM solution. pH of the sodium phosphate solution was adjusted with the citric acid solution to 7.2. The buffer to stop the reaction consists of a 500 mM Carbonate buffer, pH 11.0. 734 mg FM-GlcNAc were dissolved in 5.48 mL DMSO to obtain a 250 mM solution and was stored at −20° C. OGA was used at a 2 nM concentration and FM-GlcNAc at a 100 uM final concentration. Dilutions were prepared in assay buffer.
50 nl of a compound dissolved in DMSO was dispensed on Black Proxiplate™ 384 Plus Assay plates (Perkin Elmer, #6008269) and 3 μl fl-OGA enzyme mix added subsequently. Plates were pre-incubated for 60 min at room temperature and then 2 μl FM-GlcNAc substrate mix added. […] Plates were briefly centrifuged for 1 min at 1000 rpm and incubate at room temperature for 6 h. To stop the reaction 5 μl STOP buffer were added and plates centrifuge again 1 min at 1000 rpm. Fluorescence was quantified in the Thermo Scientific Fluoroskan Ascent or the PerkinElmer EnVision with excitation wavelength 485 nm and emission wavelength 538 nm.
For analysis a best-fit curve is fitted by a minimum sum of squares method. From this an IC50 value and Hill coefficient was obtained. High control (no inhibitor) and low control (saturating concentrations of standard inhibitor) were used to define the minimum and maximum values.

The target in another test is T2, OGA (Homo sapiens, UniProt O60502).
T2 construct: endogenous in cells; host or cells: HEK293 cells inducible for P301L mutant human Tau (isoform 2N4R)
T2 sequence (O60502 1-916): T1 sequence (O60502 1-916)
The experiment in a line: OGA cellular assay (ICC detection of O-GlcNAcylated proteins in HEK293 cells inducible for P301L mutant human Tau). Format: cell-based. Particulars: for Emax: HEK293, HEK293 cells inducible for P301L mutant human Tau; for Emax / Cellular Emax (%): maximum defined by Thiamet G at 200 uM; for EC50 / Cellular Emax (%) / Cellular hOGA; pEC50: HEK293 cells inducible for P301L mutant human Tau; for EC50 / Cellular hOGA; pEC50: 6 hours incubation, ICC O-GlcNAcylation; for EC50: read-out: Cellular hOGA, pEC50 (converted). How it is done:
HEK293 cells inducible for P301L mutant human Tau (isoform 2N4R) were established at Janssen. Thiamet-G was used for both plate validation (high control) and as reference compound (reference EC50 assay validation). OGA inhibition is evaluated through the immunocytochemical (ICC) detection of O-GlcNAcylated proteins by the use of a monoclonal antibody (CTD110.6; Cell Signaling, #9875) detecting O-GlcNAcylated residues as previously described (Dorfmueller et al. 2010 Chemistry & biology, 17:1250). Inhibition of OGA will result in an increase of O-GlcNAcylated protein levels resulting in an increased signal in the experiment. Cell nuclei are stained with Hoechst to give a cell culture quality control and a rough estimate of immediate compounds toxicity, if any. ICC pictures are imaged with a Perkin Elmer Opera Phenix plate microscope and quantified with the provided software Perkin Elmer Harmony 4.1.
Cells were propagated in DMEM high Glucose (Sigma, #D5796) following standard procedures. 2 days before the cell assay cells are split, counted and seeded in Poly-D-Lysine (PDL) coated 96-wells (Greiner, #655946) plate at a cell density of 12,000 cells per cm^2 (4,000 cells per well) in 100 μl of Assay Medium (Low Glucose medium is used to reduce basal levels of GlcNAcylation) (Park et al. 2014 The Journal of biological chemistry 289:13519). At the day of compound test medium from assay plates was removed and replenished with 90 μl of fresh Assay Medium. 10 μl of compounds at a 10 fold final concentration were added to the wells. Plates were centrifuged shortly before incubation in the cell incubator for 6 hours. DMSO concentration was set to 0.2%. Medium is discarded by applying vacuum. For staining of cells medium was removed and cells washed once with 100 μl D-PBS (Sigma, #D8537). From next step onwards unless other stated assay volume was always 50 μl and incubation was performed without agitation and at room temperature. Cells were fixed in 50 μl of a 4% paraformaldehyde (PFA, Alpha aesar, #043368) PBS solution for 15 minutes at room temperature. […] Before analysis samples were washed 2 times manually for 5 minutes in ICC base buffer.
Imaging is performed using Perkin Elmer Phenix Opera using a water 20× objective and recording 9 fields per well. Intensity readout at 488 nm is used as a measure of O-GlcNAcylation level of total proteins in wells. To assess potential toxicity of compounds nuclei were counted using the Hoechst staining. IC50-values are calculated using parametric non-linear regression model fitting. As a maximum inhibition Thiamet G at a 200 uM concentration is present on each plate. In addition, a concentration response of Thiamet G is calculated on each plate.

A word on the Emax: it is the size of the effect at its maximum, as opposed to the concentration needed. In the case of `COc1cc(C[C@H]2CN(C(C)c3ccc4c(n3)OCCO4)C[C@@H]2C)cc(C)n1` (mixture of isomers) [Product 120], in test [1], the IC50 is 158 nM and the Emax was determined as 100%. Moreover, at OGA, the Emax was 36% and the EC50 was over 1000 nM.

In the case of `COc1cc(C[C@H]2CCN(C(C)c3cc4c(cc3F)OCCO4)C2)cc(C)n1` (single isomer, unassigned) [Product 10], in test [1], the IC50 was 1580 nM and the Emax amounted to 88%. For the same molecule, on OGA, the EC50 is over 1000 nM and the “Cellular Emax (%)” value was −5%.

Regarding `COc1cc(C[C@H]2CCN(C(C)c3cc4c(cc3F)OCCO4)C2)cc(C)n1` (single isomer, unassigned) [Product 11], in test [1], the IC50 was 25.1 nM and the “Enzymatic Emax (%)” value amounted to 102%. At OGA, the EC50 is 200 nM and the “Cellular Emax (%)” value was determined as 83%.

Regarding `Cc1cc(C[C@H]2CCN([C@@H](C)c3ccc4c(c3)OCC4)C2)cc(C)n1` (single isomer, unassigned) [Product 14], in test [1], the IC50 is 50.1 nM and the Emax was determined as 103%. Also, at OGA, the Emax is 74% and the EC50 is 126 nM.

Consider `Cc1cc(O[C@@H]2CCN(C(C)c3nc4c(cc3F)CCO4)C2)cc(C)n1` (single isomer, unassigned) [Product 18], for which, in test [1], the IC50 is 158 nM and the maximum response (Emax) came out at 98%. In addition, on OGA, the “Cellular Emax (%)” value amounted to 42%.

Regarding `Cc1cc(O[C@@H]2CCN(C(C)c3nc4c(cc3F)CCO4)C2)cc(C)n1` (single isomer, unassigned) [Product 19], in test [1], the IC50 is 1.58 nM and the “Enzymatic Emax (%)” value worked out at 97%. In addition, on OGA, the EC50 is 18.6 nM and the “Cellular Emax (%)” value worked out at 94%.

On to `CC(c1cc2c(cc1F)OCCO2)N1CC[C@H](Cc2ncc(F)cc2F)C1` (single isomer, unassigned) [Product 29], for which, in test [1], the IC50 was 50.1 nM and the “Enzymatic Emax (%)” value turned out to be 102%. Besides, at OGA, the maximal effect (Emax) turned out to be 35% and the EC50 was over 1000 nM.

`Cc1cc(C[C@@H]2CCN(C(C)c3cnc4c(c3)OCCO4)C2)cc(C)n1` (single isomer, unassigned) [Product 35]: in test [1], the IC50 was 7940 nM and the “Enzymatic Emax (%)” value was found to be 54%. For the same molecule, at OGA, the EC50 is over 1000 nM and the “Cellular Emax (%)” value was −6%.

Turning to `Cc1cc(C[C@@H]2CCN(C(C)c3cnc4c(c3)OCCO4)C2)cc(C)n1` (single isomer, unassigned) [Product 36], in test [1], the IC50 was 200 nM and the “Enzymatic Emax (%)” value worked out at 99%. For the same molecule, on OGA, the “Cellular hOGA; pEC50” value was under 6 and the “Cellular Emax (%)” value amounted to 15%.

Regarding `Cc1cc(O[C@@H]2CCN(C(C)c3nc4c(cc3F)OCCO4)C2)cc(C)n1` (single isomer, unassigned) [Product 40], in test [1], the IC50 was 7.94 nM and the Emax stood at 100%. Further, on OGA, the EC50 was 158 nM and the “Cellular Emax (%)” value was found to be 84%.

Take `Cc1cc(O[C@@H]2CCN(C(C)c3nc4c(cc3F)OCCO4)C2)cc(C)n1` (single isomer, unassigned) [Product 41]: in test [1], the IC50 was 1580 nM and the “Enzymatic Emax (%)” value worked out at 87%. Moreover, on OGA, the EC50 was over 1000 nM and the “Cellular Emax (%)” value is on record as −13%.

With `Cc1cc(C[C@@H]2CCN(C(C)c3nc4c(cc3F)OCCO4)C2)cc(C)n1` (single isomer, unassigned) [Product 51], in test [1], the IC50 was 398 nM and the Emax is 96%. For the same molecule, at OGA, the EC50 is over 1000 nM and the “Cellular Emax (%)” value is reported as 8%.

As to `Cc1cc(C[C@@H]2CCN(C(C)c3nc4c(cc3F)OCCO4)C2)cc(C)n1` (single isomer, unassigned) [Product 52], in test [1], the IC50 was 6.31 nM and the “Enzymatic Emax (%)” value stood at 101%. For the same molecule, on OGA, the EC50 is 63.1 nM and the “Cellular Emax (%)” value was determined as 80%.

As for `CC(c1ccc2c(n1)OCCO2)N1CC[C@@H](Oc2ccc(C#N)nn2)C1` (single isomer, unassigned) [Product 54], in test [1], the IC50 was over 10000 nM and the “Enzymatic Emax (%)” value worked out at 19%. Also, on OGA, the EC50 is over 1000 nM and the “Cellular Emax (%)” value worked out at 2%.

As for `CC(c1ccc2c(n1)OCCO2)N1CC[C@@H](Oc2ccc(C#N)nn2)C1` (single isomer, unassigned) [Product 55], in test [1], the IC50 is 200 nM and the “Enzymatic Emax (%)” value is recorded as 94%. At OGA, the “Cellular hOGA; pEC50” value was under 6 and the “Cellular Emax (%)” value is given as 24%.

The record behind these values is patent US20210277015A1, “OGA INHIBITOR COMPOUNDS” (Janssen Pharmaceutica NV, priority 2018, published 2021).
